pKd: −log10 of the molar value. Calls of active or inactive are those of the source. Cut-off read from the data, not from the text of the source, for most assays here: actives have a measured Kd and inactives only a lower limit.

Assay [1] addresses Rho-associated protein kinase 1 (Homo sapiens, UniProt Q13464).
Another assay addresses T1, Septin-9 (Homo sapiens, UniProt Q9UHD8).
T1 sequence (Q9UHD8 whole entry): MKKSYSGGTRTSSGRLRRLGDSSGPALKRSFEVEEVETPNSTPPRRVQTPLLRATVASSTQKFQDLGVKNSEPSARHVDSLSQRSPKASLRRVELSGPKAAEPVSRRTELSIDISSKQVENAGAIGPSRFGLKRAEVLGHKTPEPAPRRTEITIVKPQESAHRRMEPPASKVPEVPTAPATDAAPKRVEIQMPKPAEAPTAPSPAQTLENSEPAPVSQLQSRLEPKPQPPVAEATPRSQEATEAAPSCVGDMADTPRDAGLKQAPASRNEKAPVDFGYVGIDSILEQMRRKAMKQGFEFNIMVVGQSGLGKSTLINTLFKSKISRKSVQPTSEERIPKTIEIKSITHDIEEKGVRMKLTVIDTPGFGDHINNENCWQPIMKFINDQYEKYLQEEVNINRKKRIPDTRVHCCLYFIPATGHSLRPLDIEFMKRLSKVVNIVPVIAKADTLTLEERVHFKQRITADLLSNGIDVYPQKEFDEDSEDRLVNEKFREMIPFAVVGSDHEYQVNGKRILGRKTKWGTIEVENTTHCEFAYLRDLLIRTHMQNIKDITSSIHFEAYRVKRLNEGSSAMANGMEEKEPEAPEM

For assay [2], the target named is T2, Serine/threonine-protein kinase ULK3 (Homo sapiens, UniProt Q6PHR2).
T2 sequence (Q6PHR2 whole entry): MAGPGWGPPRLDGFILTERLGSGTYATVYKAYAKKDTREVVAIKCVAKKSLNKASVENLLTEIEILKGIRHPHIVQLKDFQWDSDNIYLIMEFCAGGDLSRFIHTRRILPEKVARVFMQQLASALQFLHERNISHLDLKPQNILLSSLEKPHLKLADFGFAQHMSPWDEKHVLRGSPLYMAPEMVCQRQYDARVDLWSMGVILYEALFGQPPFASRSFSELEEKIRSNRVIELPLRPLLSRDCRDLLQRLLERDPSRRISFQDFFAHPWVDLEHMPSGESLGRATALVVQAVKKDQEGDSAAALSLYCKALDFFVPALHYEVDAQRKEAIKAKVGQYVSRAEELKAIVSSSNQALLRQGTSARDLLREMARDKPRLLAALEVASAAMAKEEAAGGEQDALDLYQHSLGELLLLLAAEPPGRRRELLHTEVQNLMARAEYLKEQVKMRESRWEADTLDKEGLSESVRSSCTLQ

A further assay addresses T3, Activin receptor type-1B (Homo sapiens, UniProt P36896).
T3 sequence (P36896 whole entry): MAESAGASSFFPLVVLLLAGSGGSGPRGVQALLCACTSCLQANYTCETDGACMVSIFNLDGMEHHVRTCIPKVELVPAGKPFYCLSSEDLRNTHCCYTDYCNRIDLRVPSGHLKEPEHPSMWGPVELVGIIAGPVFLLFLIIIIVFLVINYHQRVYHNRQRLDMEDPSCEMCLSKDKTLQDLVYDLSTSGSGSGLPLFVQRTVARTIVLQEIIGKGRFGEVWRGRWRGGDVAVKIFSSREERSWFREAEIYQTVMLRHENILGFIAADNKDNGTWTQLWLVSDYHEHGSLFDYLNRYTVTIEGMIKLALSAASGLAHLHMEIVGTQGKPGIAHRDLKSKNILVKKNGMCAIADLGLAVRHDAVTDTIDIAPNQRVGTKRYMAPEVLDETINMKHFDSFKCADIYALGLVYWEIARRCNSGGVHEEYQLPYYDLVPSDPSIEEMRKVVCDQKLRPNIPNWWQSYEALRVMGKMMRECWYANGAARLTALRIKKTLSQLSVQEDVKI

The target of a further assay is GTP-binding protein 4 (Homo sapiens, UniProt Q9BZE4).
Assay [3] has as its target Casein kinase I isoform alpha (Homo sapiens, UniProt P48729).
Assay [4] deals with Tyrosine-protein kinase JAK1 (Homo sapiens, UniProt P23458).
Assay [5] addresses T4, Serine/threonine-protein kinase TAO2 (Homo sapiens, UniProt Q9UL54).
T4 sequence (Q9UL54 whole entry): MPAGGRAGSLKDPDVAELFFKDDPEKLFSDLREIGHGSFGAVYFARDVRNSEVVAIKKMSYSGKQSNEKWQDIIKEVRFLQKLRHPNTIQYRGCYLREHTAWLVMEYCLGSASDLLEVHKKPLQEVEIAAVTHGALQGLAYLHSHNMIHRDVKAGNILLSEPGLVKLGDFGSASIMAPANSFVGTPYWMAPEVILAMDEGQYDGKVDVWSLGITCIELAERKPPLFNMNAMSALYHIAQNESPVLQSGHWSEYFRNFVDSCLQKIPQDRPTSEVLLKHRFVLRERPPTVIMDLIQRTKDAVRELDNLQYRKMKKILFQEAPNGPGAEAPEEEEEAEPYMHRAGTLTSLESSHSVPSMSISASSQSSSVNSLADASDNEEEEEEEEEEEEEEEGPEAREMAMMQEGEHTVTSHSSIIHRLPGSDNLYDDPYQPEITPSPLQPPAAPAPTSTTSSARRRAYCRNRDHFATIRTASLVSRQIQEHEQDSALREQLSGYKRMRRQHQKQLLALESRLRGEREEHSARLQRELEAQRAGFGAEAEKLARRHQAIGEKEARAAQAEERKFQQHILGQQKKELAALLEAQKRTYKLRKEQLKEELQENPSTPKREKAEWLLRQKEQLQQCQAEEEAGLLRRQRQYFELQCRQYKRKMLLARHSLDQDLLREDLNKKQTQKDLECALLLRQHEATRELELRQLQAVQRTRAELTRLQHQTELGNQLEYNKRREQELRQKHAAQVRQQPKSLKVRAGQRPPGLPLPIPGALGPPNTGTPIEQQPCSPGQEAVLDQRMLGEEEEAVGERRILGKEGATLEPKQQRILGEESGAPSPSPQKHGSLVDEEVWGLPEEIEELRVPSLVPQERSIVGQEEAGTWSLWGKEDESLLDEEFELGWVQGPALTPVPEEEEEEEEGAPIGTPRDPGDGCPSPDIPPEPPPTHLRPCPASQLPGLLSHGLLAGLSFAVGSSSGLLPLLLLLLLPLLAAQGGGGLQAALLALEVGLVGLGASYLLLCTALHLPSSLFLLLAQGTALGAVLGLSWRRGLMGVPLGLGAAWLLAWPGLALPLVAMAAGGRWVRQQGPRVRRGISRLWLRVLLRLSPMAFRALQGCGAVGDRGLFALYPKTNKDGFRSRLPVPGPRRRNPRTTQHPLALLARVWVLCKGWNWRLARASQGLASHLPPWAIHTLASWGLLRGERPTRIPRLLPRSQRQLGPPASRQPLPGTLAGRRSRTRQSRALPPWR
Note: in the data inactive means no Kd found up to 30 µM.

Sequence of Tyrosine-protein kinase JAK1 (P23458 whole entry): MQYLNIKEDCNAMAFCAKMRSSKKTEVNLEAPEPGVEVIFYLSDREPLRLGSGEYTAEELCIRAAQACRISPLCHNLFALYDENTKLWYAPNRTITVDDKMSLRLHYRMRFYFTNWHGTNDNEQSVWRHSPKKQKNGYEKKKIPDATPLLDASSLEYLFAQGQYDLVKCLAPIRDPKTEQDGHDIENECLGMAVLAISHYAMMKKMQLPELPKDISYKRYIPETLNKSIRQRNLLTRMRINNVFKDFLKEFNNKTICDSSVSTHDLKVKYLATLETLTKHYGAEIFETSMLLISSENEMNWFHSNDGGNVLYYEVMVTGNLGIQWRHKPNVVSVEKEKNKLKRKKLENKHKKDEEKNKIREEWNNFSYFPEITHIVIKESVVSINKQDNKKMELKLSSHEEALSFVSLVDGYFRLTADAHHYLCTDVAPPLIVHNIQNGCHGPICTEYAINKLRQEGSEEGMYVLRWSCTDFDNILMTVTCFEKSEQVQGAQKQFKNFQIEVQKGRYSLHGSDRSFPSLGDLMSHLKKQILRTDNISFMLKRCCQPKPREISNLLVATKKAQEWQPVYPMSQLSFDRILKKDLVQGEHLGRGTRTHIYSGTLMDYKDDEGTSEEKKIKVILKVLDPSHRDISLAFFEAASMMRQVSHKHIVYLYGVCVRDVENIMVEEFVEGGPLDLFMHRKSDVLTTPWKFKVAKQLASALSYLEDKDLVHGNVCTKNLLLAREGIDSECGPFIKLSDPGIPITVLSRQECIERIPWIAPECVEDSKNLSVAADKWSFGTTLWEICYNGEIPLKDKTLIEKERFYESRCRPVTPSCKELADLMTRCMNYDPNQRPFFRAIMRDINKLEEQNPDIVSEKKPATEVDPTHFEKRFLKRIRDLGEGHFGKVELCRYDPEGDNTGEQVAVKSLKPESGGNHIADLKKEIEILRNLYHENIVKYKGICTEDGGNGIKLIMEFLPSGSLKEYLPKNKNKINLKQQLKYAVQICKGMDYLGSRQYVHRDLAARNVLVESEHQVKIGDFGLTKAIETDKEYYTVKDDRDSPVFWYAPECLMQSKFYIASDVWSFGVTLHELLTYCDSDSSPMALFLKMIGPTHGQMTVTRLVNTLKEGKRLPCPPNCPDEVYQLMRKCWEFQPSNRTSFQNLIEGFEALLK
Sequence of Rho-associated protein kinase 1 (Q13464 whole entry): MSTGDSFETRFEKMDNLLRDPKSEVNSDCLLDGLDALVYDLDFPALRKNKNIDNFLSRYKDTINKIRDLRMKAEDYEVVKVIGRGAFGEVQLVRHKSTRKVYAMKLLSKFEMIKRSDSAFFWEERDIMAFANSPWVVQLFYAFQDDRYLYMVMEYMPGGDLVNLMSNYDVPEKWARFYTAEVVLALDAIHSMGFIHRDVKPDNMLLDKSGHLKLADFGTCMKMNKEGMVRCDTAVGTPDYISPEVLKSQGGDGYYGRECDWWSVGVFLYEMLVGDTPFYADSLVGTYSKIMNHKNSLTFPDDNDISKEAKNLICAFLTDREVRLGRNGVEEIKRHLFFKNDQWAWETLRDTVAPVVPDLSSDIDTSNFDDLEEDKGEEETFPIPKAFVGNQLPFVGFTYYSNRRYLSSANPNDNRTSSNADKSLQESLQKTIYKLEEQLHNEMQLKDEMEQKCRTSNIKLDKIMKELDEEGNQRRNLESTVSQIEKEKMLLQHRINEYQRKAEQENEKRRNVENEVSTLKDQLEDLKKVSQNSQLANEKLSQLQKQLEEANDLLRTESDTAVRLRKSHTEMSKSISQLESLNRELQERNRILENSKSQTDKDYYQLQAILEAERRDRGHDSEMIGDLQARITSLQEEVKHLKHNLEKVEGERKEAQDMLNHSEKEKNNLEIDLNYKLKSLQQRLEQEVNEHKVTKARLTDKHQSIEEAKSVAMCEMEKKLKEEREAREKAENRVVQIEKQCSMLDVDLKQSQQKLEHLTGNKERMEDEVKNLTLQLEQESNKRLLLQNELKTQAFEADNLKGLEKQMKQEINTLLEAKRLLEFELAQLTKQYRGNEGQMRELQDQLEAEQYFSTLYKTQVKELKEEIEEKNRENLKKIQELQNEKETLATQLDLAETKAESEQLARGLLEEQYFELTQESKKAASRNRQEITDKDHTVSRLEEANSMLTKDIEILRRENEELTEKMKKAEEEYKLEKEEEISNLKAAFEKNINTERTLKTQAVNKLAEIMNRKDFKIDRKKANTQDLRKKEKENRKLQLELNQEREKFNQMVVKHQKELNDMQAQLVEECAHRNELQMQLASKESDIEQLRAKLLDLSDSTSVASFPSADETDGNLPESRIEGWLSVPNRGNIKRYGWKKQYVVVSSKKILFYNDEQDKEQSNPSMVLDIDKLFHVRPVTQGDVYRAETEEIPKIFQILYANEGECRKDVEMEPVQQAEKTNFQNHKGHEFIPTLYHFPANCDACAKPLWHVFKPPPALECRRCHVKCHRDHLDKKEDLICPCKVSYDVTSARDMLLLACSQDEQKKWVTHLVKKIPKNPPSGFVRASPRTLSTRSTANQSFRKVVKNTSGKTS
Sequence of Casein kinase I isoform alpha (P48729 whole entry, canonical isoform): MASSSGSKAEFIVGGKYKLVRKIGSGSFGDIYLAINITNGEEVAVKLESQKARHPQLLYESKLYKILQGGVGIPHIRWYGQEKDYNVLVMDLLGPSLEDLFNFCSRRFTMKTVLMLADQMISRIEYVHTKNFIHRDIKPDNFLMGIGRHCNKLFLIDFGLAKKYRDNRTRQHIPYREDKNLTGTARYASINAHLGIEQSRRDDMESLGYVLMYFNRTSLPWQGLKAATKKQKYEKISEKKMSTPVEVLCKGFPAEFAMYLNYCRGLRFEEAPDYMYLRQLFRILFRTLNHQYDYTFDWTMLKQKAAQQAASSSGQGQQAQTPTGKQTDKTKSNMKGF

For the molecule `Cc1cc2c(F)c(Oc3ncnn4cc(OC[C@@H](C)OC(=O)[C@H](C)N)c(C)c34)ccc2[nH]1` [BRIVANIB ALANINATE], the Kd (in assay [1]; at Septin-9; in assay [2]; at Activin receptor type-1B; on GTP-binding protein 4; in assay [3]) was > 30 µM (inactive) throughout. The Kd in assay [4] and in assay [5] was > 30 µM (inactive) each time.

`C1=C/COCc2cc(ccc2OCCN2CCCC2)Nc2nccc(n2)-c2cccc(c2)COC/1` [PACRITINIB]: the Kd (in assay [1]; at Septin-9; in assay [2]; at Activin receptor type-1B; at GTP-binding protein 4; in assay [3]) was > 30 µM (inactive) each time. Moreover, the Kd in assay [4] is > 30 µM (inactive); in assay [5], 3.37 µM (active).

In the case of `C[C@@H]1CN(Cc2ccc(F)cc2)[C@@H](C)CN1C(=O)c1cc2c(C(=O)C(=O)N(C)C)cn(C)c2cc1Cl` [TALMAPIMOD], the Kd (in assay [1]; on Septin-9; in assay [2]; at Activin receptor type-1B; at GTP-binding protein 4; in assay [3]) was > 30 µM (inactive) each time. Besides, the Kd in assay [4] and in assay [5] was > 30 µM (inactive) throughout.

As for `COc1cc2nccc(Oc3ccc(NC(=O)NC4CC4)c(Cl)c3)c2cc1C(N)=O` [LENVATINIB], the Kd (in assay [1]; at Septin-9; in assay [2]; at Activin receptor type-1B; at GTP-binding protein 4; in assay [3]) was > 30 µM (inactive) in each case. Further, the Kd in assay [4] and in assay [5] was > 30 µM (inactive) throughout.

`CNC(=O)c1ccc(C)c(-n2c(C)cc(OCc3ccc(F)cc3F)c(Br)c2=O)c1` [PH-797804]: the Kd (in assay [1]; on Septin-9; in assay [2]; at Activin receptor type-1B; at GTP-binding protein 4; in assay [3]) was > 30 µM (inactive) throughout. For the same molecule, the Kd in assay [4] and in assay [5] was > 30 µM (inactive) throughout.

Take `COc1cc2nccc(Oc3ccc(NC(=O)Nc4cc(C)on4)c(Cl)c3)c2cc1OC` [TIVOZANIB]: the Kd (in assay [1]; on Septin-9; in assay [2]; at Activin receptor type-1B; on GTP-binding protein 4; in assay [3]) was > 30 µM (inactive) throughout. In addition, the Kd in assay [4] and in assay [5] was > 30 µM (inactive) in each case.

On to `N[C@@H]1CCCN(c2c(/C=C3\SC(=O)NC3=O)cccc2-c2ccccc2)C1`, for which the Kd (in assay [1]; at Septin-9; in assay [2]; at Activin receptor type-1B; at GTP-binding protein 4; in assay [3]) was > 30 µM (inactive) in each case. Besides, the Kd in assay [4] and in assay [5] was > 30 µM (inactive) throughout.

For the molecule `COc1cc(N2CCC(N3CCN(C)CC3)CC2)ccc1Nc1ncnc(Nc2ccccc2S(=O)(=O)C(C)C)n1` [ASP-3026], the Kd (in assay [1]; on Septin-9; in assay [2]; on Activin receptor type-1B; in assay [3]; in assay [4]) was > 30 µM (inactive) each time. Moreover, in assay [5], the Kd was > 30 µM (inactive). Moreover, at GTP-binding protein 4, the pKd is 8.05.

As for `Cc1cc([C@@H](C)Nc2ccccc2C(=O)O)c2nc(N3CCOCC3)cc(=O)n2c1` [AZD-6482], the Kd (in assay [1]; at Septin-9; in assay [2]; on Activin receptor type-1B; on GTP-binding protein 4; in assay [3]) was > 30 µM (inactive) each time. Moreover, the Kd in assay [4] and in assay [5] was > 30 µM (inactive) in each case.

In general, Kd refers to the concentration at which binding is half-saturated. As a reminder, the pKd is −log10 of the Kd, conventionally taken in molar units.

Values taken from ChEMBL document CHEMBL3991601, “The target landscape of clinical kinase drugs” (Science, 2017).
